Laboratory results from PMC4747952, “Development of TASP0410457 (TASP457), a novel dihydroquinolinone derivative as a PET radioligand for central histamine H3 receptors” (EJNMMI Research, 2016).

Columns and labels:
[1] = target: T1, Adrenergic α2c receptor (Homo sapiens, UniProt P18825); test: Adrenergic α2c receptor binding, [3H]MK-912; conditions: 0.08 nM [3H]MK-912; read-out: Off-target binding Adrenergic α2c, IC50
T1 construct: purchased PerkinElmer
T1 sequence (P18825 1-462): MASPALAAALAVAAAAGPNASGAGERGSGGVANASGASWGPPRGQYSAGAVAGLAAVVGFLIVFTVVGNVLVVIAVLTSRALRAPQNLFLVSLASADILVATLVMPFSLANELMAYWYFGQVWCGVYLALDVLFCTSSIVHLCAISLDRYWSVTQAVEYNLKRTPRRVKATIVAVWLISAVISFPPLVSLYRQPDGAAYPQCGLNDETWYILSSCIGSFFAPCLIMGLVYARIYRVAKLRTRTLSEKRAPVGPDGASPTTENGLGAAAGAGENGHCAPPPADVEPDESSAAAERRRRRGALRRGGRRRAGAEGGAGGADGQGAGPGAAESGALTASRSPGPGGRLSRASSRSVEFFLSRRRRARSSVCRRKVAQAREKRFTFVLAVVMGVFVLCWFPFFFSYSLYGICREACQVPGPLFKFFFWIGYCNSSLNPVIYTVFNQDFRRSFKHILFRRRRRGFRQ
Method: H) 6.86 [d, J = 8.67 Hz, 2 H]; MS [ESI/APCI Dual) [Positive) m/z; 381(M+H)+ ) .
Off-target binding of compounds
The membrane preparations were made from Jurkat cell lines, and were incubated in sigma 1 binding buffer (0.1% bovine serum albumin in 50 mM Tris, pH7.4) containing 4 nM [3H]pentazocine (PerkinElmer), and serial concentrations of the compound at 25°C for 2.5 h. The reaction was terminated by rapid filtration through a 96-well GF/C filter plate presoaked in 0.5% polyethyleneimine.
The filters were washed with ice-cold 50 mM Tris (pH7.4) three times, dried, and filled with Microscint-o. The radioactivity retained on the filter was counted using a TopCount NXT. Nonspecific binding was determined as the amount of radioactivity under the above-mentioned conditions in the presence of […] of haloperidol. The IC50 values were determined by nonlinear curve-fitting of the concentration-response data for each compound using Origin version 6.1087 (OriginLab Corporation, […]
Adrenergic 2c receptor binding
Human 2c receptor-expressing membrane preparations were purchased from PerkinElmer. The membranes were incubated in binding buffer (1 mM EDTA and 0.1% bovine serum albumin in 50 mM Tris, pH7.4) containing 0.08 nM [3H]MK-912 (PerkinElmer), and serial concentrations of the compound at 25°C for 1 h. The reaction was terminated by rapid filtration through a 96-well GF/C filter plate presoaked in 0.5% polyethyleneimine. […] The radioactivity retained on the filter was counted using a TopCount NXT. Nonspecific binding was determined as the amount of radioactivity under the conditions mentioned above in the presence of […] of rauwolscine. The IC50 values were determined as for sigma 1 receptor binding. […]
The reaction was terminated by rapid filtration through a 96-well GF/C filter plate presoaked in 0.5% polyethyleneimine. […] The radioactivity retained on the filter was counted using a TopCount NXT. Nonspecific binding was determined as the amount of radioactivity under the above-mentioned conditions in the presence of 1 µM of atropine.

[2] = target: T2, rat H3R (Rattus norvegicus, UniProt Q9QYN8); test: In vitro binding to H3Rs, rat cerebral cortex membranes, [^3H]N-α-methylhistamine; conditions: 1 nM [^3H]N-α-methylhistamine, geometric mean, n = 3, read-out: Affinity for H3Rs Rat, IC50
T2 construct: Rat cerebral cortex and monkey frontal cortex were dissected; from tissue; host or cells: rat cerebral cortex membranes
T2 sequence (Q9QYN8 whole entry): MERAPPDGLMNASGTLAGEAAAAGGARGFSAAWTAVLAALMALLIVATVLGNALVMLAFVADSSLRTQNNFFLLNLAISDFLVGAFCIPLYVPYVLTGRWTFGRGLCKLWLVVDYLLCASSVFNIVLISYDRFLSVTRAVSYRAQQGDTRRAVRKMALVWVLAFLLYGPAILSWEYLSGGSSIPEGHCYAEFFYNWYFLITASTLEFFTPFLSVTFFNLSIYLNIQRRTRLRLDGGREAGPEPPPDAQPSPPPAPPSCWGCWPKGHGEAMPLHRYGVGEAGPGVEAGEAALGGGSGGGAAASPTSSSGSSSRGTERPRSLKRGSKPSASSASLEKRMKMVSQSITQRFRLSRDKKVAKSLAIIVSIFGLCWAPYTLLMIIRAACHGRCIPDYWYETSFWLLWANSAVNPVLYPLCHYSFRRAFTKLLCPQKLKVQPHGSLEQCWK
Method: Rat cerebral cortex and monkey frontal cortex were dissected, homogenized with 50 mM Tris buffer (pH 7.4) containing 5 mM EDTA and Protease Inhibitor Cocktail Tablets (Roche Diagnostics, Indianapolis, IN) and centrifuged at 48,000×g for 15 min at 4 °C. The pellets were then suspended in binding buffer (50 mM Tris containing 5 mM EDTA, pH 7.4) and stored at −80 °C as membrane preparations.
The membrane preparations were thawed and incubated in the binding buffer containing 0.1 % bovine serum albumin, 1 nM [^3H]N-α-methylhistamine (PerkinElmer, Waltham, MA) with various concentrations of a dihydroquinolinone derivative (i.e., test compound) at 25 °C for 1 h. The reaction was terminated by rapid filtration through 96-well GF/C filter plates (PerkinElmer) presoaked with 0.5 % polyethyleneimine (Wako, Osaka, Japan). After washes with ice-cold binding buffer, the plates were dried and filled with Microscint-o (PerkinElmer). The radioactivity retained on the filters was counted using a TopCount NXT (PerkinElmer). Total and nonspecific radioligand binding was determined by reaction without and with 10 μM thioperamide and clobenpropit, respectively. The specific radioligand binding was then calculated by subtracting the nonspecific binding from the total binding. The IC50 value for inhibition of the radioligand binding by the test compound was determined using a nonlinear fit of the concentration-response curve for each test compound using SAS 9.2 (SAS Institute Inc., Cary, NC). Data were expressed as the geometric means of IC50 values from three independent experiments run in duplicate.

[3] = system: Glutamate NMDA; test: Off-target binding (Cerep); set-up: unit of the concentration uncertain
Excerpt: (§1) Off-target binding of compounds assessed using an in-house assay (M4) and a commercial battery (all others) (Cerep, Celle L'Evescault, France).
(§2) Concentration % Inhibition Concentration % Inhibition Concentration % Inhibition […]
(§3) *1α -amino-3-hydroxy-5-methyl-4-isoxazolepropionic acid receptor; *2N-methyl-D-aspartate receptor; *3Strychnine-insensitive glycine-binding module of NMDA receptor; *4Phencyclidine-binding site of NMDA receptor; *5ATP-sensitive potassium channel; *6Voltage-dependent potassium channel; *7small conductance calcium-activated potassium channel; *85-hydroxytryptamine 1A receptor

[4] = system: K+ channel KV; test: Off-target binding (Cerep); set-up: unit of the concentration uncertain
Excerpt: as §1, §2, §3

[5] = system: Glutamate AMPA; test: Off-target binding (Cerep); set-up: unit of the concentration uncertain
Excerpt: as §1, §2, §3

[6] = system: Glutamate PCP (Phencyclidine-binding site of NMDA receptor); test: Off-target binding (Cerep); set-up: unit of the concentration uncertain
Excerpt: as §1, §2, §3

[7] = system: K+ channel SKCa; test: Off-target binding (Cerep); set-up: unit of the concentration uncertain
Excerpt: as §1, §2, §3

[8] = system: K+ channel KATP; test: Off-target binding (Cerep); set-up: unit of the concentration uncertain
Excerpt: as §1, §2, §3

[9] = system: Glutamate Glycine (Strychnine-insensitive glycine-binding module of NMDA receptor); test: Off-target binding (Cerep); set-up: unit of the concentration uncertain
Excerpt: as §1, §2, §3

[10] = Concentration 10 (unit uncertain)
[11] = Concentration 1 (unit uncertain)

Structure (SMILES)	IC50 [1]	IC50 [2]	% Inhibition [3, 10]	% Inhibition [4, 10]	% Inhibition [5, 10]	% Inhibition [6, 10]	% Inhibition [7, 10]	% Inhibition [8, 10]	% Inhibition [9, 10]	% Inhibition [3, 11]	% Inhibition [4, 11]	% Inhibition [5, 11]	% Inhibition [6, 11]	% Inhibition [7, 11]	% Inhibition [8, 11]	% Inhibition [9, 11]
COc1ccc(N2C(=O)CCc3cc(OCCCN4CCC[C@H]4C)ccc32)cc1 [TASP0390136, 1-(4-methoxyphenyl)-6-{3-[(2R)-2-methylpyrrolidin-1-yl]propoxy}-3,4-dihydroquinolin-2(1H)-one]	> 1000 nM	2.74 nM	-2%	-15%	-18%	-2%	7%	22%	12%	–	–	–	–	–	–	–
COc1ccc(N2C(=O)CCc3cc(OC4CCN(C5CCC5)CC4)ccc32)cn1 [TASP0410457, 6-[(1-Cyclobutylpiperidin-4-yl)oxy]-1-(6-methoxypyridin-3-yl)-3,4-dihydroquinolin-2(1H)-one]	> 1000 nM	2.34 nM	11%	-11%	1%	-2%	-1%	5%	-5%	–	–	–	–	–	–	–
COc1ccc(N2C(=O)CCc3cc(OC4CCN(C5CCC5)CC4)ccc32)cc1 [TASP0434988, 6-[(1-cyclobutylpiperidin-4-yl)oxy]-1-(4-methoxyphenyl)-3,4-dihydroquinolin-2(1H)-one]	528 nM	0.783 nM	–	–	–	–	–	–	–	-7%	-1%	0%	9%	-2%	-4%	-8%
